Experimental data: patent US20250353891A1 (MEDIMMUNE LIMITED, priority 2022, published 2025)
Starred links: 1 amine or outer side, 2 acyl side, 3 side chain; linkers in the order of their positions; H or OH if unused. Non-standard residues stand in square brackets, D forms with d. Residues, ends and D or L forms follow the SMILES beside them. Groups on a side chain read outwards from the residue. *: point of attachment. C18 diacid = O=C(O)CCCCCCCCCCCCCCCCC(=O)*; γGlu = O=C(O)[C@H](CCC(=O)[*:2])N[*:1]; αMeF = C[C@](N)(Cc1ccccc1)C(=O)O; Aib = CC(C)(N)C(=O)O

Tests used:
[1] = Mouse acute food intake study; assay type: in vivo; details: male C57Bl/6 mice, s.c., dose 10 nmol/kg, cumulative food intake at 24 hr vs vehicle
Method in brief: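 Single-housed male C57Bl/6 mice (8-9 weeks on arrival), chow-fed, acclimated and sham-dosed ≥2 times, were fasted 6-8 h, then given vehicle or peptide subcutaneously at 5 mL/kg 1-2 h before lights out. Food intake was recorded automatically over 48 h and analysed as cumulative intake.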

[2] = Proteolytic resistance to FasSSGF containing porcine pancreatic pepsin; assay type: in vitro ADME; details: pig, simulated gastric fluid
Method in brief: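 Peptide (250 μM stock in FasSSGF) mixed 1:1 with porcine pepsin stock (0.5 mg/mL in FasSSGF) and held at 37° C; samples at 0, 5, 10, 15 and 30 min quenched in ammonium bicarbonate, pH 8. Intact peptide remaining estimated by RP-HPLC peak area, UV 210 nm.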

[3] = Proteolytic resistance to FasSSIF/Pancreatin; assay type: in vitro ADME; details: simulated intestinal fluid
Method in brief: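 Peptide (1.0 mg) in pre-warmed FasSSIF, proteolysis started with fresh FasSSIF/USP Pancreatin and held at 37 °C. Aliquots at 0, 5, 10, 15, 30 min quenched in 10% TFA; remaining intact peptide estimated by RP-HPLC peak area, UV 210 nm.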

[4] = target: human GLP-1 receptor (hGLP-1R) (Homo sapiens, UniProt P43220); experiment: cAMP production (HTRF) in CHO cells expressing hGLP-1R; assay type: cell-based; design: expressed in transfected cells
Method in brief: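 Read-out: HTRF cAMP (anti-cAMP cryptate donor, cAMP-d2 acceptor in conjugate/lysis buffer), converted to % Delta F and fitted by 4-parameter logistic for EC50. Cell densities were 1×10^5 cells/mL (hGLP-1R) or 2×10^5 cells/mL (hGCGR). Stimulation lasted 30 min at room temperature.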

[5] = tested on: wildtype (WT) mice; experiment: Glucose change in wildtype mice; assay type: in vivo, mouse; details: s.c., 120 min vs 0 min, somatostatin pretreatment (octreotide) 30 min prior to cpd
Method in brief: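 Wildtype mice aged 8-14 weeks, fasted 2 h, sometimes pre-treated with octreotide 10 mg/kg 30 min before peptide injection. Blood glucose by glucometer at -30, 0, 30, 60, 120, 180, 240 and 360 min; n=4-8/group, mice reused up to 3 times with ≥1 week wash-out.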

Sequence of human GLP-1 receptor (hGLP-1R) (P43220 24-463): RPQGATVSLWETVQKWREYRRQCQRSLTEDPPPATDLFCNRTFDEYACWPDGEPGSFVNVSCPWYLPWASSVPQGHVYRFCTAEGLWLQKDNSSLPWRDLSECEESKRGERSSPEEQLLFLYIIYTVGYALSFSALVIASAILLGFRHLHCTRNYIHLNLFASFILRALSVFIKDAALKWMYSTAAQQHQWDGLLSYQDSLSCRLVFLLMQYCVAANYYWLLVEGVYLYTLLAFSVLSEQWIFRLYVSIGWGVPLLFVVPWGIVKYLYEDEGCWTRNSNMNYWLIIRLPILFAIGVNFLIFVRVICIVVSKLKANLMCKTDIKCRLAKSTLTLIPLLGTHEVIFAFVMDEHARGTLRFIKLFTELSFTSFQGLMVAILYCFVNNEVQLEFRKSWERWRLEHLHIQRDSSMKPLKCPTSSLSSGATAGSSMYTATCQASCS

CC[C@H](C)[C@H](NC(=O)[C@H](Cc1c[nH]c2ccccc12)NC(=O)[C@H](CCC(=O)O)NC(=O)[C@@H](NC(=O)[C@](C)(Cc1ccccc1)NC(=O)[C@H](CC(=O)O)NC(=O)[C@H](CCC(N)=O)NC(=O)[C@H](C)NC(=O)[C@H](C)NC(=O)[C@H](CCCCNC(=O)CC[C@H](NC(=O)CCCCCCCCCCCCCCCCC(=O)O)C(=O)O)NC(=O)[C@H](CO)NC(=O)[C@H](CC(=O)O)NC(=O)[C@H](CC(C)C)NC(=O)[C@](C)(Cc1ccccc1)NC(=O)[C@H](CCCCN)NC(=O)[C@H](CO)NC(=O)[C@@H](NC(=O)[C@H](CC(=O)O)NC(=O)[C@H](CO)NC(=O)[C@@H](NC(=O)[C@](C)(Cc1ccccc1)NC(=O)[C@H](CO)NC(=O)CNC(=O)[C@H](Cc1c[nH]cn1)NC(=O)C(C)(C)NC(=O)[C@@H](N)Cc1c[nH]cn1)[C@@H](C)O)C(C)C)C(C)C)C(=O)N[C@@H](C)C(=O)N[C@@H](CC(N)=O)C(=O)N[C@H](C(N)=O)[C@@H](C)O [Peptide 7] (H-H[Aib]HGS[αMeF]TSDVSK[αMeF]LDSK([γGlu-C18 diacid])AAQD[αMeF]VEWIANT-NH2; N-terminus assumed)
24 hr % Vehicle Food Intake [1]: 55.0%
remaining at 5 min, 125 µM [2]: 81%
remaining at 0.25 h, 125 µM [2]: 35%
remaining at 0.5 h, 125 µM [2]: 18%
remaining at 5 min, 3.3 mg/mL [3]: 96%
remaining at 10 min, 3.3 mg/mL [3]: 98%
remaining at 0.25 h, 3.3 mg/mL [3]: 96%
remaining at 0.5 h, 3.3 mg/mL [3]: 94%
EC50 ([4]; Table 6, peptides modified at position 17, cAMP in CHO hGLP-1R cells, geometric mean, read-out: hGLP-1R EC50): 0.0846 nM
% Relative Potency Ratio ([4]; Table 6, % GLP-1R activity relative to GLP-1 / % GlucR activity relative to glucagon): 0.7
WT % glucose change 120 min ([5]; 1.5 nmol/kg): 5.4%
WT % glucose change 120 min ([5]; 5 nmol/kg): −21.2%
